This passage reports TGI and GI50 results from PubChem BioAssay (NCI).

The term TGI denotes the concentration at which net growth stops. A low value points to more potent growth arrest. A word on the GI50: it is the concentration at which growth is held to half of that of the control.

Common to all, as to test: DTP human tumour cell line panel, 48 h
Test [1] deals with ACHN renal.
Test [2] deals with KM12 colon.
In test [3] the test system is T-47D breast.
For test [4], the system named is HT29 colon.
Test [5] concerns BT-549 breast.
Test [6] has as its system SF-268 CNS.
The test system of test [7] is COLO 205 colon.
Test [8] has as its system MALME-3M melanoma.
Test [9] relates to NCI-H522 lung.
The test system of test [10] is CAKI-1 renal.

Molecules are shown by their SMILES.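 Cultured in 96-well plates, cells were exposed to test compound for 48 hours across five concentrations. Here, GI50 denotes the concentration required for 50% inhibition of growth. TGI: concentration producing complete growth inhibition.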

In the case of `CCOc1nc(N)nc(C)c1N=Nc1ccc(Cl)cc1`, the concentration for total growth inhibition (TGI) in test [1], in test [2], in [3], in [4], in test [5] and in test [6] was more than 100 µM throughout. Also, the TGI in [7], in [8], in [9] and in test [10] was more than 100 µM each time.
Consider `CCN(Cc1ccc(Cl)s1)c1ccc(CO)c(Cl)c1`, for which the GI50 in test [1] was 4.68 µM; in [2], 14.7 µM; in test [3] it was 0.121 µM; in test [4], 3.01 µM; in test [5] it was 8.19 µM; in [6], 17.7 µM. Besides, the GI50 is 1.73 µM in test [7], 10 µM in test [8], 15.2 µM in [9] and 2.27 µM in [10]. For the same compound, the total growth inhibition concentration (TGI) in test [1] was more than 100 µM; in [2], 31.6 µM; in [3], 0.582 µM; in test [4], 16.4 µM; in test [5], 24.8 µM; in test [6] it was more than 60 µM. In addition, the TGI in [7] turned out to be 5.99 µM; in test [8], 28.1 µM; in [9] it was 37 µM; in test [10] it was 34.6 µM.
Consider `O=C1NC(=O)C(c2cccc(Cl)c2)=C1Nc1ccc(O)c(Cl)c1`, for which the GI50 in test [1] is 11.4 µM; in [2] it was 10.5 µM; in [3], 7.98 µM; in test [4] it was 10 µM; in [5], 11.3 µM; in test [6] it was 11.2 µM. The GI50 in [7] is more than 20.1 µM; in [8] it was 15.9 µM; in test [9] it was 6.98 µM; in test [10], 7.72 µM. Besides, the TGI in test [1] was more than 25 µM; in [2] it was more than 25 µM; in [3], more than 23.1 µM; in test [4], more than 25 µM; in [5] it was more than 25 µM; in test [6], more than 25 µM. The TGI is more than 25 µM in test [7], more than 25 µM in [8], more than 21 µM in test [9] and more than 25 µM in test [10].
As for `CCN1C(=O)N(CC)C2C1NN=c1s/c(=C\c3ccccc3Br)c(=O)n12` (centres undefined), the concentration for 50% growth inhibition (GI50) in test [1] is 0.0437 µM; in test [2], 0.0236 µM; in test [3], 13.5 µM; in test [4] it was 0.0348 µM; in [5], 0.0327 µM; in test [6], 0.0612 µM. Moreover, the GI50 in test [7] is 0.03 µM; in test [8], 1.12 µM; in test [9], 0.019 µM; in [10], 0.0242 µM. The total growth inhibition concentration (TGI) in [1] is more than 61.6 µM; in test [2], 1.5 µM; in [3] it was 57.9 µM; in test [4], 14 µM; in test [5] it was 17.1 µM; in test [6], more than 59.5 µM. For the same compound, the TGI in [7] was 0.118 µM; in test [8], 33.7 µM; in test [9], 1.12 µM; in test [10], 26.3 µM.
`O=C(Nc1cccc(Nc2ncc(Br)c(NCCc3cnc[nH]3)n2)c1)N1CCCC1`: the GI50 in test [1] was 11 µM; in test [2], 0.869 µM; in [3], 4.43 µM; in test [4], 3.85 µM; in [5] it was 2.04 µM; in test [6] it was 1.41 µM. For the same compound, the GI50 was 0.562 µM in [7], 6.19 µM in test [8], 11.5 µM in test [9] and 7.14 µM in [10]. Further, the TGI is 56 µM in [1]; 11.5 µM in test [2]; 25.5 µM in [3]; 24.2 µM in test [4]; 13 µM in [5]; 13.9 µM in [6]. For the same compound, the total growth inhibition concentration (TGI) in test [7] turned out to be 4.06 µM; in [8], 20 µM; in [9], 27.6 µM; in test [10] it was 33.2 µM.
Turning to `Cn1cncc1CC1COC(=O)C1C(O)c1ccccc1` (centres undefined), the TGI in test [1], in [2], in test [3], in test [4], in test [5] and in test [6] was more than 100 µM throughout. In addition, the TGI in test [7], in test [8], in [9] and in test [10] was more than 100 µM throughout.
Regarding `CC(C)(C)c1ccc(C(=O)Nc2sc3c(c2C(N)=O)CCC(=O)C3)cc1`, the concentration for 50% growth inhibition (GI50) in test [1] is 0.352 µM; in test [2] it was 0.55 µM; in test [3], 0.261 µM; in test [4] it was 0.489 µM; in test [5], 0.356 µM; in [6] it was 1.11 µM. Moreover, the GI50 in test [7] was 0.617 µM; in [8], 0.906 µM; in test [9], 0.318 µM; in [10], 0.348 µM. The concentration for total growth inhibition (TGI) is 1.1 µM in [1]; 2.34 µM in test [2]; 1.65 µM in test [3]; 3.5 µM in test [4]; 1.56 µM in test [5]; 3.61 µM in test [6]. The TGI in test [7] came out at 1.63 µM; in test [8] it was 2.66 µM; in [9], 1.91 µM; in [10], 1.38 µM.
Turning to `CC1(C)CCC[C@]2(C)[C@@H](C=O)C(C=O)=CC[C@@H]12`, the total growth inhibition concentration (TGI) amounted to 30.6 µM in test [1]; 31.5 µM in [2]; 60.3 µM in test [3]; 30 µM in test [4]; 74.2 µM in test [5]; 55.8 µM in [6]. In addition, the total growth inhibition concentration (TGI) is 36.5 µM in test [7], 32 µM in test [8], 37.4 µM in test [9] and 23.1 µM in test [10].
In the case of `BrCc1ccc(CBr)cc1`, the GI50 was 1.94 µM in [1]; 1.29 µM in [2]; 12.7 µM in [3]; 4.38 µM in test [4]; 5.82 µM in test [6]; 0.146 µM in test [7]. In addition, the GI50 in [8] is 4.56 µM; in test [9], 18.2 µM; in test [10], 1.99 µM. Moreover, the TGI in test [1] was 6.78 µM; in test [2], 6.71 µM; in test [3], 48.8 µM; in test [4], more than 23.9 µM; in [5] it was 3.8 µM; in test [6] it was 18 µM. For the same compound, the total growth inhibition concentration (TGI) in [7] is more than 100 µM; in [8] it was 12.5 µM; in test [9], 52.2 µM; in test [10], 6.92 µM.
